Data taken from patent publication US11596639B2, “Substituted indole Mcl-1 inhibitors” (Vanderbilt University, priority 2016, dated 2023).

Assays:
[1] = test system: H929 human cancer cell lines; assay: Cellular viability / proliferation (Cell TiterGlo, 72 h); format: cell-based; details: Homo sapiens, NCI-H929, 72 h, read-out: GI50 on cellular proliferation of H929 human cancer cell lines, H929 cells, 72 h, Cell TiterGlo, 10% FBS
Method in brief: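 1,000 cells/well, 10% FBS medium; compound added at 24 h, 2-fold dilutions from 50 μM top, DMSO <1% final. 72 h exposure, CellTiterGlo 30 min RT dark, luminescence read. IC50 by 4-parameter fit.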

Mcl-1 = Mcl-1 (Homo sapiens (Human), UniProt Q07820); assay: TR-FRET binding assay, FITC-Bak peptide and MBP-tagged Mcl-1; details: read-out: Ki for Inhibition of Mcl-1 by TR-FRET assay
Protocol: Compounds are diluted in DMSO in a 16-point, semilog serial dilution scheme. […] The plate was mixed and incubated for 3 hours at room temperature. […] TR-FRET signal is plotted and IC50 and Ki values are calculated in the same manner as the fluorescence polarization anisotropy based competition assays.

Mcl-1, sequence (Q07820 172-327): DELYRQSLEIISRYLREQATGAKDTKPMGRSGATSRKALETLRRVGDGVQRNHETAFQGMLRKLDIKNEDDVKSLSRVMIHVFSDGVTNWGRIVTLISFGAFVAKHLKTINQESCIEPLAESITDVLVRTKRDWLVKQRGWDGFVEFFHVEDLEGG

Question: Which results are given for Cc1cc(OCCCc2c3n(c4c(-c5c(C)nn(C)c5C)c(Cl)ccc24)[C@H](C)CN(c2cc(COCCN(C)C)cc4cc(C(=O)O)n(C)c24)C3=O)cc(C)c1Cl [Example 614, (R)-7-(7-chloro-10-(3-(4-chloro-3,5-dimethylphenoxy)propyl)-4-methyl-1-oxo-6-(1,3,5-trimethyl-1H-pyrazol-4-yl)-3,4-dihydropyrazino[1,2-a]indol-2(1H)-yl)-5-((2-(dimethylamino)ethoxy)methyl)-1-methyl-1H-indole-2-carboxylic acid]?
Answer: GI50 [1]: 690 nM; Ki (Mcl-1): < 0.2 nM

Question: Which GI50 [1] does the source give for Cc1cc(N2C[C@@H](C)n3c(c(CCCOc4cc(C)c(Cl)c(C)c4)c4ccc(Cl)c(-c5c(C)nn(C)c5C)c43)C2=O)c2c(c1)cc(C(=O)O)n2Cc1cc(N2CCCCC2)ccn1 [Example 504, (R)-7-(7-Chloro-10-(3-(4-chloro-3,5-dimethylphenoxy)propyl)-4-methyl-1-oxo-6-(1,3,5-trimethyl-1H-pyrazol-4-yl)-3,4-dihydropyrazino[1,2-a]indol-2(1H)-yl)-5-methyl-1-((4-(piperidin-1-yl)pyridin-2-yl)methyl)-1H-indole-2-carboxylic acid] here?
Answer: 1000 nM

Question: And the Ki (Mcl-1)?
Answer: 0.23 nM

Question: How did the GI50 [1] turn out when COCCn1cc(N2C[C@@H](C)n3c(c(CCCOc4cc(C)c(Cl)c(C)c4)c4ccc(Cl)c(-c5c(C)nn(C)c5C)c43)C2=O)c2cc(-c3ncn(CCN4CCN(C)CC4)n3)ccc21 [Example 602, (R)-7-Chloro-10-(3-(4-chloro-3,5-dimethylphenoxy)propyl)-2-(1-(2-methoxyethyl)-5-(1-(2-(4-methylpiperazin-1-yl)ethyl)-1H-1,2,4-triazol-3-yl)-1H-indol-3-yl)-4-methyl-6-(1,3,5-trimethyl-1H-pyrazol-4-yl)-3,4-dihydropyrazino[1,2-a]indol-1(2H)-one] was run?
Answer: 430 nM

Question: What about the Ki (Mcl-1) of the same compound?
Answer: 5.9 nM

Question: With COCCOc1cc(N2C[C@@H](C)n3c(c(CCCOc4cc(C)c(Cl)c(C)c4)c4ccc(Cl)c(-c5c(C)ncnc5C)c43)C2=O)c2c(c1)cc(C(=O)O)n2Cc1cccc(C)n1 [Example 571, (R)-7-(7-chloro-10-(3-(4-chloro-3,5-dimethylphenoxy)propyl)-6-(4,6-dimethylpyrimidin-5-yl)-4-methyl-1-oxo-3,4-dihydropyrazino[1,2-a]indol-2(1H)-yl)-5-(2-methoxyethoxy)-1-((6-methylpyridin-2-yl)methyl)-1H-indole-2-carboxylic acid] as the compound, how does the GI50 [1] read?
Answer: < 200 nM

Question: What about the Ki (Mcl-1) of the same compound?
Answer: < 0.2 nM

Question: Which GI50 [1] does the source give for Cc1cc(OCCCc2c3n(c4c(-c5c(C)nn(C)c5C)c(Cl)ccc24)[C@H](C)CN(c2cn(CCN4CCN(C)CC4)c4ccc(C(=O)O)cc24)C3=O)cc(C)c1Cl [Example 569, (R)-3-(7-chloro-10-(3-(4-chloro-3,5-dimethylphenoxy)propyl)-4-methyl-1-oxo-6-(1,3,5-trimethyl-1H-pyrazol-4-yl)-3,4-dihydropyrazino[1,2-a]indol-2(1H)-yl)-1-(2-(4-methylpiperazin-1-yl)ethyl)-1H-indole-5-carboxylic acid] here?
Answer: 470 nM

Question: What about the Ki (Mcl-1) of the same compound?
Answer: 0.49 nM

Question: Which GI50 [1] does the source give for Cc1cc(OCCCc2c3n(c4c(-c5c(C)cc(OCCN(C)C)cc5C)c(Cl)ccc24)[C@H](C)CN(c2cn(C)c4ccc(C(=O)O)cc24)C3=O)cc(C)c1Cl [Example 509, (R)-3-(7-chloro-10-(3-(4-chloro-3,5-dimethylphenoxy)propyl)-6-(4-(2-(dimethylamino)ethoxy)-2,6-dimethylphenyl)-4-methyl-1-oxo-3,4-dihydropyrazino[1,2-a]indol-2(1H)-yl)-1-methyl-1H-indole-5-carboxylic acid] here?
Answer: 390 nM

Question: What about the Ki (Mcl-1) of the same compound?
Answer: 1.6 nM

Question: COCCOCCn1c(C(=O)O)cc2cccc(N3C[C@@H](C)n4c(c(CCCOc5cc(C)c(Cl)c(C)c5)c5ccc(Cl)c(-c6c(C)nn(C)c6C)c54)C3=O)c21 [Example 634, (R)-7-(7-chloro-10-(3-(4-chloro-3,5-dimethylphenoxy)propyl)-4-methyl-1-oxo-6-(1,3,5-trimethyl-1H-pyrazol-4-yl)-3,4-dihydropyrazino[1,2-a]indol-2(1H)-yl)-1-(2-(2-methoxyethoxy)ethyl)-1H-indole-2-carboxylic acid] was tested. Which GI50 [1] did it give?
Answer: 280 nM

Question: And the Ki (Mcl-1)?
Answer: < 0.2 nM

Question: What does the source list for CC(=O)N1CCN(c2ccnc(Cn3c(C(=O)O)cc4cc(C)cc(N5C[C@@H](C)n6c(c(CCCOc7cc(C)c(Cl)c(C)c7)c7ccc(Cl)c(-c8c(C)nn(C)c8C)c76)C5=O)c43)c2)CC1 [Example 552, (R)-1-((4-(4-acetylpiperazin-1-yl)pyridin-2-yl)methyl)-7-(7-chloro-10-(3-(4-chloro-3,5-dimethylphenoxy)propyl)-4-methyl-1-oxo-6-(1,3,5-trimethyl-1H-pyrazol-4-yl)-3,4-dihydropyrazino[1,2-a]indol-2(1H)-yl)-5-methyl-1H-indole-2-carboxylic acid]?
Answer: GI50 [1]: 4600 nM; Ki (Mcl-1): < 0.2 nM

Question: Cc1cc(N2C[C@@H](C)n3c(c(CCCOc4cc(C)c(Cl)c(C)c4)c4ccc(Cl)c(-c5c(C)nn(C)c5C)c43)C2=O)c2c(c1)cc(C(=O)O)n2Cc1cc(N2CCOCC2)ccn1 [Example 500, (R)-7-(7-chloro-10-(3-(4-chloro-3,5-dimethylphenoxy)propyl)-4-methyl-1-oxo-6-(1,3,5-trimethyl-1H-pyrazol-4-yl)-3,4-dihydropyrazino[1,2-a]indol-2(1H)-yl)-5-methyl-1-((4-morpholinopyridin-2-yl)methyl)-1H-indole-2-carboxylic acid] was tested. Which GI50 [1] did it give?
Answer: 330 nM

Question: And the Ki (Mcl-1)?
Answer: < 0.2 nM

Question: COCCn1cc(N2C[C@@H](C)n3c(c(CCCOc4cc(C)c(Cl)c(C)c4)c4ccc(Cl)c(-c5c(C)nn(C)c5C)c43)C2=O)c2cc(-c3ncn(CC4CN(C(C)=O)C4)n3)ccc21 [Example 618, (R)-2-(5-(1-((1-Acetylazetidin-3-yl)methyl)-1H-1,2,4-triazol-3-yl)-1-(2-methoxyethyl)-1H-indol-3-yl)-7-chloro-10-(3-(4-chloro-3,5-dimethylphenoxy)propyl)-4-methyl-6-(1,3,5-trimethyl-1H-pyrazol-4-yl)-3,4-dihydropyrazino[1,2-a]indol-1(2H)-one] was tested. Which GI50 [1] did it give?
Answer: 360 nM

Question: What about the Ki (Mcl-1) of the same compound?
Answer: 3.8 nM

Question: How did the GI50 [1] turn out when Cc1cc(N2C[C@@H](C)n3c(c(CCCOc4cc(C)c(Cl)c(C)c4)c4ccc(Cl)c(-c5c(C)nn(C)c5C)c43)C2=O)c2c(c1)cc(C(=O)O)n2Cc1cccc(N2CCN(C)CC2)n1 [Example 516, (R)-7-(7-Chloro-10-(3-(4-chloro-3,5-dimethylphenoxy)propyl)-4-methyl-1-oxo-6-(1,3,5-trimethyl-1H-pyrazol-4-yl)-3,4-dihydropyrazino[1,2-a]indol-2(1H)-yl)-5-methyl-1-((6-(4-methylpiperazin-1-yl)pyridin-2-yl)methyl)-1H-indole-2-carboxylic acid] was run?
Answer: 330 nM

Question: And the Ki (Mcl-1)?
Answer: < 0.2 nM

Question: Which GI50 [1] does the source give for Cc1cc(OCCCc2c3n(c4c(-c5c(C)nn(C)c5C)c(Cl)ccc24)[C@H](C)CN(c2cn(C)c4ccc(-c5nc6cccc(C)n6n5)cc24)C3=O)cc(C)c1Cl [Example 696, (R)-7-Chloro-10-(3-(4-chloro-3,5-dimethylphenoxy)propyl)-4-methyl-2-(1-methyl-5-(5-methyl-[1,2,4]triazolo[1,5-a]pyridin-2-yl)-1H-indol-3-yl)-6-(1,3,5-trimethyl-1H-pyrazol-4-yl)-3,4-dihydropyrazino[1,2-a]indol-1(2H)-one] here?
Answer: 1400 nM

Question: What about the Ki (Mcl-1) of the same compound?
Answer: 1.1 nM

Question: What does the source list for Cc1cc(N2C[C@@H](C)n3c(c(CCCOc4cc(C)c(Cl)c(C)c4)c4ccc(Cl)c(-c5c(C)nn(C)c5C)c43)C2=O)c2c(c1)cc(C(=O)O)n2CC(=O)N1CCOCC1 [Example 598, (R)-7-(7-chloro-10-(3-(4-chloro-3,5-dimethylphenoxy)propyl)-4-methyl-1-oxo-6-(1,3,5-trimethyl-1H-pyrazol-4-yl)-3,4-dihydropyrazino[1,2-a]indol-2(1H)-yl)-5-methyl-1-(2-morpholino-2-oxoethyl)-1H-indole-2-carboxylic acid]?
Answer: GI50 [1]: 1900 nM; Ki (Mcl-1): < 0.2 nM

Question: What does the source list for Cc1cc(OCCCc2c3n(c4c(-c5c(C)nn(C)c5C)c(Cl)ccc24)[C@H](C)CN(c2cc(Oc4ccccn4)cc4cc(C(=O)O)n(C)c24)C3=O)cc(C)c1Cl [Example 522, (R)-7-(7-Chloro-10-(3-(4-chloro-3,5-dimethylphenoxy)propyl)-4-methyl-1-oxo-6-(1,3,5-trimethyl-1H-pyrazol-4-yl)-3,4-dihydropyrazino[1,2-a]indol-2(1H)-yl)-1-methyl-5-(pyridin-2-yloxy)-1H-indole-2-carboxylic acid]?
Answer: GI50 [1]: 750 nM; Ki (Mcl-1): 0.32 nM

Question: Which GI50 [1] does the source give for Cc1cc(OCCCc2c3n(c4c(-c5c(C)nn(C)c5C)c(Cl)ccc24)[C@H](C)CN(c2cn(C)c4ccc(-n5nccn5)cc24)C3=O)cc(C)c1Cl [Example 662, (R)-7-Chloro-10-(3-(4-chloro-3,5-dimethylphenoxy)propyl)-4-methyl-2-(1-methyl-5-(2H-1,2,3-triazol-2-yl)-1H-indol-3-yl)-6-(1,3,5-trimethyl-1H-pyrazol-4-yl)-3,4-dihydropyrazino[1,2-a]indol-1(2H)-one] here?
Answer: 1900 nM

Question: And the Ki (Mcl-1)?
Answer: 0.93 nM

Question: Which results are given for Cc1cc(OCCCc2c3n(c4c(-c5c(C)nc(CN6CCN(C)CC6)nc5C)c(Cl)ccc24)[C@H](C)CN(c2cn(CCN(C)C)c4ccc(C(=O)O)cc24)C3=O)cc(C)c1Cl [Example 580, (R)-3-(7-chloro-10-(3-(4-chloro-3,5-dimethylphenoxy)propyl)-6-(4,6-dimethyl-2-((4-methylpiperazin-1-yl)methyl)pyrimidin-5-yl)-4-methyl-1-oxo-3,4-dihydropyrazino[1,2-a]indol-2(1H)-yl)-1-(2-(dimethylamino)ethyl)-1H-indole-5-carboxylic acid]?
Answer: GI50 [1]: 960 nM; Ki (Mcl-1): < 0.2 nM
